# Assay results reported in paper PMC6022228, “Introducing novel potent anticancer agents of 1H-benzo[f]chromene scaffolds, targeting c-Src kinase enzyme with MDA-MB-231 cell line anti-invasion effect” (Journal of Enzyme Inhibition and Medicinal Chemistry, 2018).
# Values joined by “and” are separate entries in the source; they are usually repeats but may differ in a detail not shown here. Identical values can stand only once. Like-named read-outs stand apart in the source and are kept apart here.
# How the values were obtained:
# HCT-116 = assay: MTT viability assay, HCT-116 (human colon cancer); type: cell-based; settings: 24 h incubation, mean ± standard error
# Method: (§1) Compounds 4a–h and 6a–h were initially evaluated for in vitro antitumour activity against three different human cell lines: MCF-7, HCT-116, and HepG-2, and only the representative active cytotoxic compounds were further evaluated against the normal HFL-1 cell line. The in vitro cytotoxicity evaluation was performed at the Regional Center for Mycology & Biotechnology (RCMP), Al-Azhar University under different concentrations (50, 25, 12.5, 6.25, 3.125, 1.56, and 0 µg/mL); Vinblastine and Doxorubicin are used as reference cytotoxic compounds. The measurements of cell growth and the in vitro cytotoxicity evaluation were determined using viability assay as described in literature[31–33] and the result was cited in Table 1 and Figure 2.
# (§2) The in vitro cytotoxic evaluation of the prepared compounds 4a–h and 6a–h was performed against MCF-7 (breast cancer), HCT-116 (human colon cancer), HepG-2 (liver cancer), and HFL-1(normal fibroblast lung) using the 3-(4,5-dimethylthiazol-2-yl)-2,5-diphenyl tetrazolium bromide (MTT) colorimetric assay as described in literature. […] The results were expressed as growth inhibitory concentration (IC50) values, which represent the compounds’ concentrations required to produce a 50% inhibition of the cell growth after 24 h of incubation, compared to the untreated controls as shown in Table 1 and Figure 2.
# HFL-1 = assay: MTT viability assay, HFL-1 (normal fibroblast lung); type: cell-based; settings: Homo sapiens, HFL1, 24 h incubation, normal cell line, mean ± standard error
# Method: as §1, §2
# [1] = tested on: caspases 3/7 in MDA-MB-231 cells; assay: Caspase-Glo 3/7 activity assay; type: cell-based; settings: Homo sapiens, 24 h treatment, 10 concentrations, read-out: Caspase-Glo 3/7 activity assay, MDA-MB-231 cell line, IC50
# Method: The Caspase-Glo 3/7 activity assay was performed by Reaction Biology Corporation, One Great Valley Parkway, PA. Examined compounds 4c, 4e, 4h, 6d, and 6e were dissolved in DMSO as 20 mM stock and tested for their ability to Caspase-Glo 3/7 activity assay. […] Caspase-Glo 3/7 activity assay reagent was purchased from Promega (Madison, WI). MDA-MB-231 cell line was provided by ATCC. MDA-MB-231 cell line culture conditions: DMEM with 10% FBS. 100 µg/mL penicillin and 100 µg/mL streptomycin were added to the culture media. Cultures were maintained at 37 °C in a humidified atmosphere of 5% CO2 and 95% air.
# Caspases are […] that promote apoptosis. Caspases are vital biochemical features of apoptotic signalling. […] To determine whether the cell growth inhibition in response to the benzochromene derivatives was mediated by apoptosis and was caspase dependent, MDA-MB-231 cells were treated with 10 different concentrations of the target compounds for 24 h.
# HepG-2 = assay: MTT viability assay, HepG-2 (liver cancer); type: cell-based; settings: Homo sapiens, HepG2, 24 h incubation, mean ± standard error
# Method: as §1, §2
# MCF-7 = assay: MTT viability assay, MCF-7 (breast cancer); type: cell-based; settings: Homo sapiens, MCF7, 24 h incubation, mean ± standard error
# Method: as §1, §2
# c-Src kinase = target: T1, c-Src kinase (Homo sapiens, UniProt P12931); assay: c-Src kinase assay (HTScan Src Kinase Assay Kit); type: biochemical; settings: GST-Src kinase, triplicate; read-out: Inhibition of c-Src kinase activity, IC50
# T1 construct: purchased Cell Signaling Technology (Danvers, MA) 7776
# Method: Streptavidin-coated plates were purchased from Pierce (Rockford, IL). […] The reaction mixture was incubated for 30 min at room temperature. The kinase reaction was stopped with the addition of 50 µL of 50 mM EDTA (pH 8.0). […] At the end of the incubation, the wells were washed three times with 200 µL of 0.05% Tween-20 in PBS buffer (PBS/T). After that to each well was added 100 µL of phosphotyrosine antibody (P-Tyr-100) (1:1000 dilution in PBS/T with 1% BSA) and the wells were incubated for another 60 min. After washing three times with 0.05% Tween-20 in PBS/T, the wells were incubated with 100 µL secondary anti-mouse IgG antibody, which was HRP-conjugated (1:500 dilution in PBS/T with 1% BSA) for next 30 min at room temperature. The wells were washed five times with 0.05% Tween-20 in PBS and then were incubated with 100 µL of 3,3′,5,5′-tetramethylbenzidine dihydrochloride substrate for 5 min. […] IC50 values of the compounds were calculated using ORIGIN 6.0 (Origin Lab Corporation, Northampton, MA) software. […] All the experiments were carried out in triplicate.
# MDA-MB-231 cell line = assay: Cell invasion assay; type: cell-based; settings: Homo sapiens
# Method: The cell invasion assay was performed by Reaction Biology Corporation, One Great Valley Parkway, PA. All compounds were dissolved in DMSO and tested for their ability to cell invasion assay. Compounds 4c, 6e, and reference compound bosutinib were purchased from Sellechem (Houston, TX). Corning Bio Coat Fluoro Blok Insert System-96-well plates were purchased from Corning (Corning Incorporated, Tewksbury, MA). Calcein AM labelling reagent was purchased from Molecular Probes (Eugene, Oregon). MDA-MB-231 cell line was purchased from American Type Culture Collection (Manassas, VA). MDA-MB-231 cells were grown in DMEM medium supplemented with 10% foetal bovine serum (FBS), 100 µg/mL of penicillin, and 100 µg/mL of streptomycin. Cultures were maintained at 37 °C in a humidified atmosphere of 5% CO2 and 95% air-following incubation; medium was carefully removed from the apical chambers. The insert system was transferred into a second 96-square well plate containing 200 µl/well of 4 µg/mL Calcein AM in HBSS. The plates were incubated for 1 h at 37 °C, 5% CO2. Fluorescence of invaded cells was read at wavelengths of 492/535 nm (Ex/Em) from bottom reading using Envision 2104 Multilabel Reader (PerkinElmer, Santa Clara, CA). The IC50 curves were plotted and IC50 values were calculated using the Graph Pad Prism 4 program for windows (Graph Pad software, San Diego California. www.graphpad.com) based on a sigmoidal dose-response equation.
# Tumour invasion is a common feature of triple-negative breast cancers. […] The invasion process has become an important prerequisite for cancer progression and metastasis. […] A bosutinib drug was used as a control ant-invasive agent. […] The obtained data might confirm that the cytotoxicity of novel molecules led to the death of the cancer cells and stopped the metastatic processes.
# [2] = Table 2, read-out: IC50 anti-invasion, MDA-MB-231 breast cancer cells
# T1 sequence (P12931 whole entry): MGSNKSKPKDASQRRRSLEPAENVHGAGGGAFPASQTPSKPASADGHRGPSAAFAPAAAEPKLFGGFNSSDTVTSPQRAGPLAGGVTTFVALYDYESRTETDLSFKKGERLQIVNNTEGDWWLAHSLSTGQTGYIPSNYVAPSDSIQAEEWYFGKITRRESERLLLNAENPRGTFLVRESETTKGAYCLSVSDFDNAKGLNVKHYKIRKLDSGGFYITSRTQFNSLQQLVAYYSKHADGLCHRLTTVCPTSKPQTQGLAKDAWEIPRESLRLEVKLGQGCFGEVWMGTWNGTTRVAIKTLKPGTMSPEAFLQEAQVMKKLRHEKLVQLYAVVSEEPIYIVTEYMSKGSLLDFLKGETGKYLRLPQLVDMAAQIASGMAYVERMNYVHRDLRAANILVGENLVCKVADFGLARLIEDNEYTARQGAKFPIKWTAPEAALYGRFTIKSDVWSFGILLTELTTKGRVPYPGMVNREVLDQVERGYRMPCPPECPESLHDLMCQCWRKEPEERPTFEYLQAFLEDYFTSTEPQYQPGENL
Structure (SMILES),IC50 (HCT-116),IC50 (HFL-1),IC50 [1],IC50 (HepG-2),melting point,IC50 (MCF-7),IC50 (c-Src kinase),IC50 (MDA-MB-231 cell line; [2]),"IC50 (MDA-MB-231 cell line; read-out: IC50 anti-invasion activity, MDA-MB-231)"
"COc1ccc(C2C(C#N)=C(N)Oc3ccc4cc(Br)ccc4c32)cc1OC (stereo not drawn) [Compound 4h, 3-Amino-8-bromo-1-(3,4-dimethoxyphenyl)-1H-benzo[f]chromene-2-carbonitrile]",4.1 ± 0.16 µg/mL,12.9 ± 0.13 µg/mL,31500 nM,11 ± 0.02 µg/mL,200 to 201 °C,0.66 ± 0.04 µg/mL,214 to 329 nM and 214 nM,–,–
"COc1ccc2c3c(ccc2c1)OC(N)=C(C#N)C3c1ccc(C)cc1 (stereo not drawn) [Compound 6e, 3-Amino-8-methoxy-1-(4-methylphenyl)-1H-benzo[f]chromene-2-carbonitrile]",0.8 ± 0.06 µg/mL,29.7 ± 0.17 µg/mL,38900 nM,0.6 ± 0.21 µg/mL,232 to 233 °C,0.3 ± 0.05 µg/mL,9 nM,16500 nM,–
"Cc1ccc(C2C(C#N)=C(N)Oc3ccc4cc(Br)ccc4c32)cc1 (stereo not drawn) [Compound 4e, 3-Amino-8-bromo-1-(4-methylphenyl)-1H-benzo[f]chromene-2-carbonitrile]",0.7 ± 0.25 µg/mL,22.4 ± 0.21 µg/mL,19500 nM,0.9 µg/mL,215 to 216 °C,2.5 ± 0.18 µg/mL,9 nM,–,–
"COc1ccc2c3c(ccc2c1)OC(N)=C(C#N)C3c1ccc(Br)cc1 (stereo not drawn) [Compound 6d, 3-Amino-1-(4-bromophenyl)-8-methoxy-1H-benzo[f]chromene-2-carbonitrile]",0.9 ± 0.58 µg/mL,35.5 ± 0.22 µg/mL,25600 nM,0.7 ± 0.13 µg/mL,261 to 262 °C,2 ± 0.25 µg/mL,214 to 329 nM and 329 nM,–,–
"CN[C@@H]1C[C@H]2O[C@@](C)([C@@H]1OC)n1c3ccccc3c3c4c(c5c6ccccc6n2c5c31)C(=O)NC4 [Staurosporine, staurosporine, reference compound]",–,–,68.5 nM,–,–,–,–,–,–
"N#CC1=C(N)Oc2ccc3cc(Br)ccc3c2C1c1ccc(Cl)cc1 (stereo not drawn) [Compound 4c, 3-Amino-8-bromo-1-(4-chlorophenyl)-1H-benzo[f]chromene-2-carbonitrile]",0.7 ± 0.11 µg/mL,15.2 ± 0.1 µg/mL,22600 nM,1.1 ± 0.12 µg/mL,260 to 261 °C,0.5 ± 0.23 µg/mL,9 to 329 nM and 89 nM,10800 nM,10500 nM
